Laboratory results published in patent US20250179047A1, “5-[7-(3,4-DIHYDRO-1H-ISOQUINOLINE-2-CARBONYL)-1,2,3,4 TETRAHYDROISOQUINOLIN-6-YL]-1H-PYRROLE-3-CARBOXAMIDE DERIVATIVES, PHARMACEUTICAL COMPOSITIONS CONTAINING THEM AND THEIR USES AS PRO-APOPTOTIC AGENTS” (LES LABORATOIRES SERVIER, priority 2022, published 2025).

Experiments:
[1] = target: BCL2 WT (Homo sapiens (Human), UniProt P10415); test: TR-FRET competitive binding assay, BCL2 WT; conditions: Ki determined from IC50, read-out: TR_FRET EKI_Bcl2 WT
In short: (§1)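 Terbium-labelled N-terminal Halo-fusion BCL2 or BCLXL (E. coli), 0.5 nM, competed against fluorescein-labelled PUMA peptide (2 or 20 nM) for 2 h at 23° C in 50 mM Hepes pH 7.5, 150 mM NaCl, 5% DMSO. TR-FRET 520/495 nm ratio gave IC50 by four-parameter fit; Ki derived from IC50.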

[2] = target: BCL2 G101V (Homo sapiens, UniProt P10415, G101V); test: TR-FRET competitive binding assay, BCL2 G101V; conditions: BCL2 G101V; Ki determined from IC50; read-out: TR_FRET EKI_Bcl2 G101V
In short: as §1

[3] = tested on: BCL2 G101V; test: TR-FRET competitive binding assay, BCL2 G101V; parameters: species or system human; conditions: ratio Ki BCL2 G101V / Ki BCL2 WT
In short: as §1

[4] = target: BCL2 D103Y (Homo sapiens, UniProt P10415, D103Y); test: TR-FRET competitive binding assay, BCL2 D103Y; conditions: Ki determined from IC50, read-out: TR_FRET EKI_Bcl2 D103Y
In short: as §1

[5] = target: BCLXL WT (Homo sapiens (Human), UniProt Q07817); test: TR-FRET competitive binding assay, BCLXL WT; conditions: for Ki: BCLXL WT, Ki determined from IC50, read-out: TR_FRET EKI BclxL; for TR_FRET EKI BCLxL/WT selectivty ratio: ratio Ki BCLxL / Ki BCL2 WT
In short: as §1

[6] = tested on: KMS-12-PE Bcl-2 WT; test: In vitro cytotoxicity CellTiter-Glo 48 h, KMS-12-PE Bcl-2 WT; assay type: cell-based; conditions: Homo sapiens, KMS-12-PE, C50 = concentration needed to reach 50% of the cellular viability
In short: (§2)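 KMS-12-PE myeloma cells lentivirally transduced with Bcl-2 WT or G101V (TagRFP-sorted), exposed to compound 11-point dose-response for 48 h at 37 °C, 5% CO2. Viability read by CellTiter-Glo ATP luminescence; C50 is the concentration giving 50% cellular viability.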

[7] = tested on: KMS-12-PE Bcl-2 G101V; test: In vitro cytotoxicity CellTiter-Glo 48 h, KMS-12-PE Bcl-2 G101V; assay type: cell-based; conditions: for Ratio (G101V/WT): C50 KMS-12-PE Bcl-2 G101V over C50 KMS-12-PE Bcl-2 WT; for IC50: Homo sapiens, KMS-12-PE, 48 h, CellTiter-Glo, C50 = concentration needed to reach 50% of the cellular viability
In short: as §2

BCLXL WT, sequence (Q07817 other isoform, or with tags, fused parts or gaps): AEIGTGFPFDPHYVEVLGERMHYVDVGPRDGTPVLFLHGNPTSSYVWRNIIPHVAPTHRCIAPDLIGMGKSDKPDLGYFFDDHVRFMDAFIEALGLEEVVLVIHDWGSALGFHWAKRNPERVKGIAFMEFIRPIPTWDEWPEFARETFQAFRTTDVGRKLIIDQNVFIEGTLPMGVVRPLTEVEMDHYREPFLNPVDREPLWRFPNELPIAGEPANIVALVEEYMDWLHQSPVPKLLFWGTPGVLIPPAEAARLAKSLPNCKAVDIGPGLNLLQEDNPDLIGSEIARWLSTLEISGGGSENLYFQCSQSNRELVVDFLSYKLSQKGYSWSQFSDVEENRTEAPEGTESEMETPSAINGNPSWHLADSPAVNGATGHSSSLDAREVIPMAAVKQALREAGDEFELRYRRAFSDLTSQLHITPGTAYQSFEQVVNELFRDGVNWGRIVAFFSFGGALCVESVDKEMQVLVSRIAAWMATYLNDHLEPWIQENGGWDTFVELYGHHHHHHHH

| SMILES | Ki [1] | Ki [2] | TR_FRET EKI G101V/WT selectivty ratio [3] | Ki [4] | Ki [5] | TR_FRET EKI BCLxL/WT selectivty ratio [5] | IC50 [6] | Ratio (G101V/WT) [7] | IC50 [7] |
| --- | --- | --- | --- | --- | --- | --- | --- | --- | --- |
| Cc1c(N(C(=O)c2cc(-c3cc4c(cc3C(=O)N3Cc5ccccc5C[C@H]3C)CN(C(=O)Cc3ccc(OCCN5CCOC6(CCCC6)C5)cc3)CC4)n(C)c2C)c2ccc(O)cc2)cc(C#N)n1C [Example 73, N-(5-cyano-1,2-dimethyl-1H-pyrrol-3-yl)-N-(4-hydroxyphenyl)-1,2-dimethyl-5-{7-[(3R)-3-methyl-1,2,3,4-tetrahydroisoquinoline-2-carbonyl]-2-{2-[4-(2-{6-oxa-9-azaspiro[4.5]decan-9-yl}ethoxy)phenyl]acetyl}-1,2,3,4-tetrahydroisoquinolin-6-yl}-1H-pyrrole-3-carboxamide] | 0.5 nM | 2.7 nM | 5.4 | 1.74 nM | 8.9 nM | 17.8 | 0.0057 µM | 5.25 | 0.0298 µM |
| Cc1c(N(C(=O)c2cc(-c3cc4c(cc3C(=O)N3Cc5ccccc5C[C@H]3CN3CCCCC3)CN(C(=O)Cc3ccc(OCCN5CCC(F)CC5)cc3)CC4)n(C)c2C)c2ccc(O)cc2)cc(C#N)n1C [Example 76, N-(5-cyano-1,2-dimethylpyrrol-3-yl)-5-[2-(2-{4-[2-(4-fluoropiperidin-1-yl)ethoxy]phenyl}acetyl)-7-{[(3S)-3-(piperidin-1-ylmethyl)-3,4-dihydro-1H-isoquinolin-2-yl]carbonyl}-3,4-dihydro-1H-isoquinolin-6-yl]-N-(4-hydroxyphenyl)-1,2-dimethylpyrrole-3-carboxamide] | 0.06 nM | 0.3 nM | 5.5 | 0.18 nM | 1.8 nM | 32.7 | 0.0165 µM | 5.28 | 0.0871 µM |
| Cc1c(N(C(=O)c2cc(-c3cc4c(cc3C(=O)N3Cc5ccccc5C[C@H]3CN3CC[C@@H](F)C3)CN(C(=O)Cc3ccc(OCCC5CCOCC5)cc3)CC4)n(C)c2C)c2ccc(O)cc2)cc(C#N)n1C [Example 79, N-(5-cyano-1,2-dimethylpyrrol-3-yl)-5-(7-{[(3S)-3-{[(3R)-3-fluoropyrrolidin-1-yl]methyl}-3,4-dihydro-1H-isoquinolin-2-yl]carbonyl}-2-(2-{4-[2-(oxan-4-yl)ethoxy]phenyl}acetyl)-3,4-dihydro-1H-isoquinolin-6-yl)-N-(4-hydroxyphenyl)-1,2-dimethylpyrrole-3-carboxamide] | 0.26 nM | 1.5 nM | 5.8 | 0.75 nM | 3.9 nM | 15.0 | 0.0122 µM | 4.85 | 0.0592 µM |
| Cc1c(N(C(=O)c2cc(-c3cc4c(cc3C(=O)N3Cc5ccccc5C[C@H]3CN3CC[C@@H](F)C3)CN(C(=O)Cc3ccc(OCCN5CCOCC5)cc3F)CC4)n(C)c2C)c2ccc(O)cc2)cc(C#N)n1C [Example 80, N-(5-cyano-1,2-dimethylpyrrol-3-yl)-5-[2-(2-{2-fluoro-4-[2-(morpholin-4-yl)ethoxy]phenyl}acetyl)-7-{[(3S)-3-{[(3R)-3-fluoropyrrolidin-1-yl]methyl}-3,4-dihydro-1H-isoquinolin-2-yl]carbonyl}-3,4-dihydro-1H-isoquinolin-6-yl]-N-(4-hydroxyphenyl)-1,2-dimethylpyrrole-3-carboxamide] | 0.06 nM | 0.3 nM | 4.9 | 0.14 nM | 1.2 nM | 21.1 | 0.0094 µM | 5.66 | 0.0534 µM |
